Results reported in publication PMC8528301 (PLoS ONE, 2021).
Values joined by “and” are separate entries in the source; they are usually repeats but may differ in a detail not shown here. Equal entries are not always repeated. Where two headings read alike, the source gives them in different places.

Experiment: Dasatinib single oral gavage plasma pharmacokinetics (NLME modeling)
Type: in vivo, mouse
Set-up: DV (dasatinib plasma concentration): unit: ng/mL
Details: for CL/F: both sexes, po, read-out: Cl_pop (apparent oral clearance) (converted); for CL/F / concentration at 0.5 h / concentration at 1 h / concentration at 2 h / concentration at 8 h / concentration at 16 h / concentration at […] / concentration at 4 h / concentration at 24 h: C57BL/6, mouse, plasma, 10 mg/kg; for concentration at 0.5 h / concentration at 1 h / concentration at 2 h / concentration at 8 h / concentration at 16 h / concentration at […] / concentration at 4 h / concentration at 24 h: oral, read-out: DV (dasatinib plasma concentration)
Protocol: Dasatinib was dissolved in 80 mMol/L sodium citrate buffer pH 3.1 for a total dasatinib concentration of 1 mg/mL and a 10 mL/kg gavage volume. Mice were grouped by VD3 status and sex and studied at 8 and 10 weeks of age. […] Saphenous and submandibular bleeds of mice using a single-use Sarstedt Minivette POCT 50 μL K3 EDTA capillary device are humane methods for obtaining small volumes of blood over multiple time points, preferrable to retroorbital bleeds, and were approved for this study that required blood sampling at multiple time points (three) after dasatinib administration. Each mouse was sampled three times on two separate dasatinib dosing occasions. Blood was collected into the Minivette capillary device, dispensed into a microtube and vortexed to mix the anticoagulant. The tubes were then immediately centrifuged to plasma and stored on dry ice for the remainder of the study. At the end of the in vivo procedures, plasma samples were transferred from dry ice and placed at -80°C until analysis.
Total plasma dasatinib concentrations were assessed using a sensitive and specific liquid chromatography, tandem mass spectrometry (LC-MS/MS) assay. Dasatinib stock solutions were prepared in acetonitrile and used to spike matrix calibrators and quality controls. Protein precipitation was performed using a 1:4 ratio of plasma to 15 ng/mL erlotinib HCl (St. Jude Compound Management, S00004053, Inventory ID: SJCH0042996, Purity > 95%) in methanol as an internal standard. A 3μL aliquot of the extracted supernatant was injected onto a Shimadzu LC-20ADXR high performance liquid chromatography system via a LEAP CTC PAL autosampler. The LC separation was performed using a Phenomenex Kinetex 2.6 um EVO C18 (100A, 50 x 2.1 mm) maintained at 50°C with gradient elution at a flow rate of 0.5 mL/min. The binary mobile phase gradient began with a linear increase to 100% B in 4.0 minutes. The column was then rinsed for 2.0 minutes at 100% B and then equilibrated at the initial conditions for two minutes for a total run time of eight minutes.
Analyte and IS were detected with tandem mass spectrometry using a SCIEX API 5500 Q-TRAP in the positive ESI mode with monitoring of the following mass transitions: Dasatinib 488.20 -> 401.00, erlotinib HCl 394.20 -> 250.10.
The experimental bioanalytical runs were all found to be acceptable for the purpose of a singlicate non-GLP, preclinical PK assessment. A linear model (1/X^2 weighting) fit the calibrators across the 1.00 to 500 ng/mL range, with a correlation coefficient (R) of […]. The lower limit of quantification (LLOQ), defined as a peak area signal-to-noise ratio of 5 or greater verses a matric blank with IS, was 1.00 ng/mL.
§ To evaluate the plasma pharmacokinetics (PK) of dasatinib af t er two separate single oral gavage doses of solution, separated by a washout period, in normal C57BL/6 mice […]
vs 10wk) on the plasma PK of oral dasatinib us ing a nonlinear mixed effects (NLME) PK modeling […]
2. 1 In Vivo Pharmacokinetic (PK) Study
The total plasma PK of dasatinib in C57BL/6 mice (The Jackson Laboratory) was assessed after single oral gavages of 10 mg/kg of dasatinib free base equivalents. Dasatinib (St. Jude Compound […]
sodium citrate buffer pH 3.1 for a final dasatinib concentration of 1 mg/mL for a 10 mL/kg gavage volume.
Mice were grouped by Vitamin D dietary sufficiency status and sex, and studied at 8 and 10 weeks of age. Survival saphenous and facial vein bleeding of mice was conducted using IACUC-approved […]
was sampled 3 times on the 2 separate occasions of dasatinib dosing. […] The tubes were then immediately centrifuged to plasma, and stored on dry ice for […]

Compound: Cc1nc(Nc2ncc(C(=O)Nc3c(C)cccc3Cl)s2)cc(N2CCN(CCO)CC2)n1 [dasatinib]
- DV (dasatinib plasma concentration) (GROUP:VD3 Suf, SEX:M, OCC 2, time 0.25): 101.99 and 116.5
- DV (dasatinib plasma concentration) (GROUP:VD3 Suf, SEX:M, OCC 2, time 0.5): 207.19 and 212.25
- DV (dasatinib plasma concentration) (GROUP:VD3 Suf, SEX:M, OCC 2, time 2): 297.27 and 320.75
- DV (dasatinib plasma concentration) (GROUP:VD3 Suf, SEX:M, OCC 2, time 8): 10.361 and 16.431
- DV (dasatinib plasma concentration) (GROUP:VD3 Suf, SEX:M, OCC 2, time 24): 3.3895 and 3.3706
- CL/F (Base Model, 10 mg/kg oral gavage): 112 mL/min/kg
- CL/F (Final Model): 119 mL/min/kg
- concentration at 0.5 h (female, GROUP:VD3 Def, SEX:F, OCC 1, time 0.5): 149 ng/mL
- concentration at 1 h (female, GROUP:VD3 Def, SEX:F, OCC 1, time 1): 278 ng/mL
- concentration at 2 h (female, GROUP:VD3 Def, SEX:F, OCC 1, time 2): 435 ng/mL
- concentration at 8 h (female, GROUP:VD3 Def, SEX:F, OCC 1, time 8): 25.2 ng/mL
- concentration at 16 h (female, GROUP:VD3 Def, SEX:F, OCC 1, time 16): 4.02 ng/mL
- concentration at […] (female, GROUP:VD3 Def, SEX:F, OCC 2, time 0.125): 49 ng/mL
- concentration at […] (female, GROUP:VD3 Def, SEX:F, OCC 2, time 0.25): 146 ng/mL
- concentration at 0.5 h (female, GROUP:VD3 Def, SEX:F, OCC 2, time 0.5): 188 ng/mL
- concentration at 16 h (female, GROUP:VD3 Def, SEX:F, OCC 2, time 16): 4.35 ng/mL
- concentration at […] (female, GROUP:VD3 Suf, SEX:F, OCC 1, time 0.25): 167 ng/mL
- concentration at 0.5 h (female, GROUP:VD3 Suf, SEX:F, OCC 1, time 0.5): 231 ng/mL
- concentration at 2 h (female, GROUP:VD3 Suf, SEX:F, OCC 1, time 2): 405 ng/mL
- concentration at 4 h (female, GROUP:VD3 Suf, SEX:F, OCC 1, time 4): 54.1 ng/mL
- concentration at 8 h (female, GROUP:VD3 Suf, SEX:F, OCC 1, time 8): 22 ng/mL
- concentration at 16 h (female, GROUP:VD3 Suf, SEX:F, OCC 1, time 16): 2.06 ng/mL
- concentration at 0.5 h (female, GROUP:VD3 Suf, SEX:F, OCC 2, time 0.5): 137 ng/mL
- concentration at 1 h (female, GROUP:VD3 Suf, SEX:F, OCC 2, time 1): > 500 ng/mL
- concentration at 2 h (female, GROUP:VD3 Suf, SEX:F, OCC 2, time 2): 441 ng/mL
- concentration at 4 h (female, GROUP:VD3 Suf, SEX:F, OCC 2, time 4): 64 ng/mL
- concentration at 16 h (female, GROUP:VD3 Suf, SEX:F, OCC 2, time 16): 8.15 ng/mL
- concentration at […] (male, GROUP:VD3 Def, SEX:M, OCC 1, time 0.25): 145 ng/mL
- concentration at 0.5 h (male, GROUP:VD3 Def, SEX:M, OCC 1, time 0.5): 194 ng/mL
- concentration at 2 h (male, GROUP:VD3 Def, SEX:M, OCC 1, time 2): > 500 ng/mL
- concentration at 4 h (male, GROUP:VD3 Def, SEX:M, OCC 1, time 4): 87.8 ng/mL
- concentration at 8 h (male, GROUP:VD3 Def, SEX:M, OCC 1, time 8): 16.2 ng/mL
- concentration at 24 h (male, GROUP:VD3 Def, SEX:M, OCC 1, time 24): 6.39 ng/mL
- concentration at 0.5 h (male, GROUP:VD3 Def, SEX:M, OCC 2, time 0.5): 178 ng/mL
- concentration at 1 h (male, GROUP:VD3 Def, SEX:M, OCC 2, time 1): > 500 ng/mL
- concentration at 2 h (male, GROUP:VD3 Def, SEX:M, OCC 2, time 2): 287 ng/mL
- concentration at 4 h (male, GROUP:VD3 Def, SEX:M, OCC 2, time 4): 83.2 ng/mL
- concentration at 8 h (male, GROUP:VD3 Def, SEX:M, OCC 2, time 8): 15.5 ng/mL
- concentration at 16 h (male, GROUP:VD3 Def, SEX:M, OCC 2, time 16): 11.1 ng/mL
- concentration at […] (male, GROUP:VD3 Suf, SEX:M, OCC 1, time 0.125): 49.4 ng/mL
- concentration at […] (male, GROUP:VD3 Suf, SEX:M, OCC 1, time 0.25): 110 ng/mL
- concentration at 2 h (male, GROUP:VD3 Suf, SEX:M, OCC 1, time 2): 350 ng/mL
- concentration at 4 h (male, GROUP:VD3 Suf, SEX:M, OCC 1, time 4): 147 ng/mL
- concentration at […] (male, GROUP:VD3 Suf, SEX:M, OCC 2, time 0.25): 107 ng/mL
- concentration at 0.5 h (male, GROUP:VD3 Suf, SEX:M, OCC 2, time 0.5): 316 ng/mL
- concentration at 1 h (male, GROUP:VD3 Suf, SEX:M, OCC 2, time 1): > 500 ng/mL
- concentration at 2 h (male, GROUP:VD3 Suf, SEX:M, OCC 2, time 2): 366 ng/mL
- concentration at 8 h (male, GROUP:VD3 Suf, SEX:M, OCC 2, time 8): 20.4 ng/mL
- concentration at 24 h (male, GROUP:VD3 Suf, SEX:M, OCC 2, time 24): 1.88 ng/mL
